Measured values taken from patent publication US12077503B2, “Substituted cyclic amides and their use as herbicides” (FMC CORPORATION, priority 2015, dated 2024).

How the values were obtained:
Type in all cases: in vivo
[1] = tested on: ragweed (common ragweed, Ambrosia elatior); experiment: Test A preemergence; details: Ambrosia artemisiifolia, pre-emergence, 240 h, preemergence, 0 to 100 scale where 0 is no effect and 100 is complete control, read-out: Ragweed plant response rating
Method in brief: (§1)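 Visual injury, scored on a 0–100 scale relative to untreated controls, was recorded about 10 d after application. Treatments were a preemergence soil spray over planted seeds or a postemergence spray on plants at the one- to two-leaf stage, 2 to 10 cm tall, all in loam soil–sand blend in the greenhouse.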

[2] = tested on: Galium (catchweed bedstraw, Galium aparine); experiment: Test A postemergence; details: Galium, post-emergence, 240 h, postemergence, read-out: Galium plant response rating
Method in brief: as §1

Kochia (Kochia scoparia) = experiment: Test A postemergence; details: Bassia scoparia, post-emergence, 240 h, postemergence, read-out: Kochia plant response rating
Method in brief: as §1

[3] = tested on: barnyardgrass (Echinochloa crus-galli); experiment: Test A postemergence; details: Echinochloa crus-galli, post-emergence, 240 h, postemergence, read-out: Barnyardgrass plant response rating
Method in brief: as §1

[4] = tested on: blackgrass (Alopecurus myosuroides); experiment: Test A postemergence; details: Alopecurus myosuroides, post-emergence, 240 h, postemergence, read-out: Blackgrass plant response rating
Method in brief: as §1

corn (Zea mays) = experiment: Test A postemergence; details: Zea mays, post-emergence, 240 h, postemergence, read-out: Corn plant response rating
Method in brief: as §1

[5] = tested on: giant foxtail (Setaria faberii); experiment: Test A postemergence; details: Setaria faberi, post-emergence, 240 h, postemergence, read-out: Foxtail, Giant plant response rating
Method in brief: as §1

[6] = tested on: pigweed (Amaranthus retroflexus); experiment: Test A postemergence; details: Amaranthus retroflexus, post-emergence, 240 h, postemergence
Method in brief: as §1

[7] = tested on: ragweed (common ragweed, Ambrosia elatior); experiment: Test A postemergence; details: Ambrosia artemisiifolia, post-emergence, 240 h, postemergence
Method in brief: as §1

[8] = tested on: ryegrass, Italian (Italian ryegrass, Lolium multiflorum); experiment: Test A postemergence; details: Lolium multiflorum, post-emergence, 240 h, postemergence
Method in brief: as §1

[9] = tested on: wheat (Triticum aestivum); experiment: Test A postemergence; details: Triticum aestivum, post-emergence, 240 h, postemergence
Method in brief: as §1

[10] = tested on: barnyardgrass (Echinochloa crus-galli); experiment: Test B flooded paddy test; details: Echinochloa crus-galli, 250 g ai/ha, Flood; 0 to 100 scale where 0 is no effect and 100 is complete control; read-out: Barnyardgrass plant response rating
Method in brief: (§2)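 Compound goes directly into floodwater once pots are flooded 3 cm above soil, targeting plants at two leaves; the water depth is then held for the test duration. Plants sit 13–15 d in a greenhouse and are rated visually, 100 denoting complete control.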

[11] = tested on: ducksalad (Heteranthera limosa); experiment: Test B flooded paddy test; details: Heteranthera limosa, 250 g ai/ha, Flood; 0 to 100 scale where 0 is no effect and 100 is complete control; read-out: Ducksalad plant response rating
Method in brief: as §2

rice (Oryra sativa) = experiment: Test B flooded paddy test; details: Oryza sativa, 250 g ai/ha, Flood; 0 to 100 scale where 0 is no effect and 100 is complete control; read-out: Rice plant response rating
Method in brief: as §2

[12] = tested on: sedge, umbrella (small-flower umbrella sedge, Cyperus difformis); experiment: Test B flooded paddy test; details: Cyperus difformis, 250 g ai/ha, Flood; 0 to 100 scale where 0 is no effect and 100 is complete control; read-out: Sedge, Umbrella plant response rating
Method in brief: as §2

[13] = 125 g ai/ha, visual injury on 0 to 100 scale (0 no effect, 100 complete control), approx. 10 d
[14] = 500 g ai/ha, 0 to 100 scale, 0 is no effect, 100 is complete control

O=C1NC[C@H](c2ccc(F)c(OC(F)(F)C(F)F)c2)[C@H]1C(=O)Nc1ccc(F)cc1F (racemic) [Compound 1154]
pest or weed control at 125 g/ha ([1]; 125 g ai/ha, approx. 10 d): 20% | pest or weed control at 500 g/ha ([1]; 500 g ai/ha): 90% | pest or weed control at 125 g/ha [2, 13]: 60% | pest or weed control at 500 g/ha [2, 14]: 70% | pest or weed control at 125 g/ha (Kochia (Kochia scoparia); [13]): 60% | pest or weed control at 500 g/ha (Kochia (Kochia scoparia); [14]): 60% | pest or weed control at 125 g/ha [3, 13]: 70% | pest or weed control at 500 g/ha [3, 14]: 90% | pest or weed control at 125 g/ha [4, 13]: 70% | pest or weed control at 500 g/ha [4, 14]: 90% | plant injury at 125 g/ha (corn (Zea mays); [13]): 90% | plant injury at 500 g/ha (corn (Zea mays); [14]): 90% | pest or weed control at 125 g/ha [5, 13]: 90% | pest or weed control at 500 g/ha [5, 14]: 60% | pest or weed control at 125 g/ha ([6]; 125 g ai/ha, visual injury vs untreated controls after approx. 10 d, 0 = no effect, 100 = complete control, read-out: Pigweed plant response rating (0 to 100 scale)): 60% | pest or weed control at 500 g/ha ([6]; 500 g ai/ha, 0 to 100 scale, 0 is no effect, 100 is complete control, read-out: Pigweed plant response rating): 70% | pest or weed control at 125 g/ha ([7]; 125 g ai/ha, visual injury vs untreated controls after approx. 10 d, 0 = no effect, 100 = complete control, read-out: Ragweed plant response rating (0 to 100 scale)): 0% | pest or weed control at 500 g/ha ([7]; 500 g ai/ha, 0 to 100 scale, 0 is no effect, 100 is complete control, read-out: Ragweed plant response rating): 40% | pest or weed control at 125 g/ha ([8]; 125 g ai/ha, visual injury vs untreated controls after approx. 10 d, 0 = no effect, 100 = complete control, read-out: Ryegrass, Italian plant response rating (0 to 100 scale)): 30% | pest or weed control at 500 g/ha ([8]; 500 g ai/ha, 0 to 100 scale, 0 is no effect, 100 is complete control, read-out: Ryegrass, Italian plant response rating): 50% | plant injury at 125 g/ha ([9]; 125 g ai/ha, visual injury vs untreated controls after approx. 10 d, 0 = no effect, 100 = complete control, read-out: Wheat plant response rating (0 to 100 scale)): 40% | plant injury at 500 g/ha ([9]; 500 g ai/ha, 0 to 100 scale, 0 is no effect, 100 is complete control, read-out: Wheat plant response rating): 80% | pest or weed control at 250 g/ha [10]: 30% | pest or weed control at 250 g/ha [11]: 100% | pest or weed control at 250 g/ha (rice (Oryra sativa)): 30% | pest or weed control at 250 g/ha [12]: 0%
